The record followed here is patent publication US10179914B2, “CDC25A inhibitor for the treatment of drug resistant cancer or for the prevention of tumor relapse” (INSERM (INSTITUT NATIONAL DE LA SANTÉ ET DE LA RECHERCHE …, priority 2014, dated 2019).

Holding throughout (assay type): cell-based, human
Assay [1] deals with FLT3-wild type primary AML samples. Description: Differentiation of FLT3 wild-type primary AML samples. As to conditions: same conditions. From the text: Patient samples. Patient AML samples were obtained after informed consent in accordance with the Declaration of Helsinki and stored at the HIMIP collection. According to the French law, HIMIP collection has been declared to the Ministry of Higher Education and Research (DC 2008-307 collection 1) and obtained a transfer agreement (AC 2008-129) after approbation by ethical committees (Comité de Protection des Personnes Sud-Ouest et Outremer II and APHP ethical committee). Clinical and biological annotations of the samples have been declared to the CNIL (Comité National Informatique et Libertés i.e. Data processing and Liberties National Committee). Frozen cells were thawed in IMDM medium with 20% FBS and immediately processed for treatment. All patients were diagnosed at the Department of Hematology of Toulouse University Hospital.
Co-cultures. […]
Flow cytometry. Apoptotic cells were detected with Annexin V-FITC detection kit from BD Pharmingen (San Diego, Calif., USA) according to the manufacturer instructions. […] Data were collected on a LSRII or a LSRFortessa cytometer (BD Biosciences), and analyzed with FlowJo software. […]

In assay [2] the test system is MV4-11 cells (FLT3-ITD positive). Description: Cell proliferation, trypan blue counting, MV4-11. As to conditions: 200 nM. On the procedure:
(a) MV4-11 and MOLM-14 FLT3-ITD positive cells, KG1, HL-60 and TF-1 FLT3 wild type cells, and K562 FLT3 negative cells were cultured in the presence of the CDC25 inhibitor IRC-083864 (200 nM). Cells were harvested each day and counted after trypan blue coloration. The graph represents three independent experiments.
(b) MOLM-14 and MV4-11 cells were transfected with CDC25A siRNA for 24 hours, and cells were counted after trypan blue coloration (upper panel). The efficiency of CDC25A siRNA was estimated by western blot analysis (lower panel). ns: non specific.
Cell lines and reagents. Human acute myeloid leukemia cell lines MOLM-14 (Matsuo Y et al, Leukemia 1997) (kindly provided by Martin Carroll, University of Pennsylvania, Philadelphia, Pa., USA) MV4-11, K562 (ACC-102 and ACC-10, DSMZ, Braunschweig, Germany) and FLT3-ITD-expressing murine BaF3 cells were cultured in RPMI 1640 medium (Gibco, Life Technologies, Carlsbad, Calif., USA) supplemented with 10% fetal bovine serum (Sigma, Saint Louis, Calif., USA). TF-1 (ATCC-CRL2003) cells were cultured in RPMI 1640 medium with 10% fetal bovine serum and GM-CSF 2 ng/ml. […]
siRNA. […] Twenty-four or forty-eight hours after transfection, cells were counted (trypan blue staining), and western blotting was performed.

Assay [3] has as its system MOLM-14 cells (FLT3-ITD positive). Kind of assay: Cell proliferation, trypan blue counting, MOLM-14. As to conditions: 200 nM. On the procedure: Cells were harvested each day and counted after trypan blue staining. The graphs represent three independent experiments.
Cell lines and reagents. […] Concerning MOLM-14 cell line, the presence of a monoallelic 21 bp FLT3-ITD mutation and of an MLL-containing ins(11; 9)(q23;p22p23) were verified (Hematology laboratory of Toulouse University Hospital, Prof E. Delabesse and Dr I. Luquet). KG1 and HL-60 (ACC-14 and ACC-3, DSMZ) cell lines were grown in Iscove's Modified Dulbecco's Medium (IMDM, Gibco) plus 20% FBS. All cells were grown in the presence of 100 units/ml of penicillin and streptomycin (Invitrogen) at 37° C. and 5% CO2.
siRNA. The MV4-11 cell line was transfected with the Amaxa nucleofection technology (Lonza, Koeln, Germany). […] Twenty-four or forty-eight hours after transfection, cells were counted (trypan blue staining), and western blotting was performed.

Each structure is given as a SMILES string.

For `Cc1nc2c(s1)C(=O)C=C(NCCCN(C)CCCNC1=CC(=O)c3nc(-c4cc(F)ccc4F)oc3C1=O)C2=O` [IRC-083864], the “differentiation of FLT3-wild type samples” value in assay [1] is given as “no evidence of differentiation”. In assay [2], the “proliferation of MV4-11” value was “robust inhibition”. In assay [3], the “proliferation of MOLM-14” value is on record as “robust inhibition”.
